Paper PMC10218941, “Design, Synthesis, Antiproliferative Actions, and DFT Studies of New Bis–Pyrazoline Derivatives as Dual EGFR/BRAF^V600E Inhibitors” (International Journal of Molecular Sciences, 2023)

Test system: A-549 (lung cancer cell line)
Experiment: Antiproliferative assay (MTT), A-549
Assay type: cell-based
Details: Homo sapiens, A549; read-out: Antiproliferative Activity IC50 ± SEM (µM) A-549
Description: The antiproliferative activity of pyrazoline hybrids 8–17 was tested against the four human cancer cell lines Panc-1 (pancreatic cancer cell line), MCF-7 (breast cancer cell line), HT-29 (colon cancer cell line), and A-549 (lung cancer cell line) using the MTT assay and doxorubicin as the reference drug. See Appendix SA (Supplementary File).
4.2. Biological evaluation
4.2.1. Cytotoxic activity using MTT Assay and evaluation of IC50 […]
96-well flat-bottomed cell culture plates were used to seed the cells at a […]
of 10^4 cells mL-1. The medium was aspirated from all the wells of culture plates after 24 h followed by the addition of synthesized compounds (in 200 μL medium to yield a final concentration of 0.1% (v/v) dimethyl sulfoxide) into individual wells of the plates. Four wells were designated to a single compound. The plates were allowed to incubate at 37°C for 96 h. Afterwards, the medium was aspirated and 3 -[4,5-dimethylthiazol-2-yl]-2,5-diphenyltetrazolium bromide (MTT) (0.4 mg/mL) in medium was added to each well and subsequent ly incubated for 3 h. The medium was aspirated and 150 μL dimethyl sulfoxide (DMSO) was added to each well. The plates were vortexed followed by the measurement of absorbance at 540 nm on a microplate reader. The results were presented as inhibition (%) of proliferation in contrast to controls comprising 0.1% 4.2.1.2. Assay for antiproliferative effect
To explore the antiproliferative potential of compounds propidium iodide fluorescence assay was performed using different cell lines such as Panc -1 (pancreas cancer cell line), MCF-7 (breast cancer cell line), HT-29 (colon cancer cell line) and A-549 (epithelial cancer cell line), respectively. To calculate the total nuclear DNA, a fluorescent dye (propidium iodide, PI) is used which can attach to the DNA, thus offering a quick and precise technique. PI cannot pass through the cell membrane and its signal intensity can be considered as directly proportional to quantity of cellular DNA. Cells whose cell membranes are damaged or have changed permeability are counted as dead ones. The assay was performed by seeding the cells of different cell lines at a density of 3000-7500 cells/well (in200μl medium) in culture plates followed by incubation for 24h at 37 °C in humidified 5%CO2/95% air atmospheric conditions. The medium was removed; the compounds were added to the plates at 10 μM concentrations (in 0.1% DMSO) in triplicates, followed by incubation for 48h. DMSO (0.1%) was used as control. After incubation, medium was removed followed by the addition of PI (25 μl, 50μg/mL in water/medium) to each well of the plates. At - 80 °C, the plates were allowed to freeze for 24 h, followed by thawing at 25 °C. A fluorometer (Polar-Star BMG Tech) was used to record the readings at excitation and emission wavelengths of 530 and 620 nm for each well. The percentage cytotoxicity of compounds was calculated using […]
Where ATC= Absorbance of treated cells and AC= Absorbance of control. Erlotinib was used as positive control in the assay. […]

Row | SMILES | IC50
1 | COc1ccc(C2CC(c3ccc(OCC(=O)Nc4ccc(C5=NNC(c6ccc(OC)c(OC)c6)C5)cc4)cc3)=NN2)cc1 (centres unmarked) [Compound 12, 2-(4-(5-(4-Methoxyphenyl)-4,5-dihydro-1H-pyrazol-3-yl)phenoxy)-N-(4-(5-(3,4-dimethoxyphenyl)-4,5-dihydro-1H-pyrazol-3-yl)phenyl)acetamide] | 1 ± 0.1 µM
2 | COc1ccc(C2CC(c3ccc(NC(=O)COc4ccc(C5=NNC(c6ccc(OC)c(OC)c6)C5)cc4)cc3)=NN2)cc1 (centres unmarked) [Compound 17, 2-(4-(5-(3,4-Dimethoxyphenyl)-4,5-dihydro-1H-pyrazol-3-yl)phenoxy)-N-(4-(5-(4-methoxyphenyl)-4,5-dihydro-1H-pyrazol-3-yl)phenyl)acetamide] | 1.2 ± 0.1 µM
